Measurements published in US20110306597A1, “Nicotinamide Derivatives” (priority 2008, published 2011).
pIC50: −log10 of the molar value.

Biological target: human recombinant H-PGDS (Homo sapiens, UniProt O60760)
Assay: Fluorescence Intensity h-PGDS TBA Enzyme Assay
Assay type: biochemical
Settings: 1:175,000 human recombinant H-PGDS, highest inhibitor concentration typically 1 μM
Experimental: Fluorescence Intensity h-PGDSTBA Enzyme Assay
Prostaglandin D Synthase (PGDS) converts the substrate prostaglandin H2 (PGH2) to prostaglandin D2. The depletion of PGH2 was measured via an Fe(II) reduction of the remaining PGH2 to malondialdehyde (MDA) and 12-HHT. The enzyme assay is based on the quantitative formation of a fluorescent complex from the non-fluorescent compounds MDA and 2-thiobarbituric acid (TBA), substantially as described in U.S. patent application publication US-2004/152148 by Lombardt.
The enzyme assay (31 μls) contained 100 mM Tris base pH 8.0, 100 μM MgCl2, 0.1 mg/ml IgG Rabbit serum, 5.0 μM PGH2 (Cayman; ethanol solution, #17020), 2.5 mM L-Glutathione (Sigma; reduced form #G4251), 1:175,000 human recombinant H-PGDS (from 1 mg/ml), 0.5% DMSO and inhibitor (varying concentration). Three μls of diluted inhibitor (dissolved in DMSO) was plated into a 384-well assay plate followed by a 25 μl addition of an enzyme solution containing h-PGDS, Tris, MgCl2, IgG and L-Glutathione. After preincubation of inhibitor and enzyme solution for 10 minutes at room temperature, the reaction was initiated with a 3 μl addition of substrate solution in 10 mM HCl. The reaction was terminated after 42 second by the addition (3 μl) of stop buffer containing FeCl2 and citric acid. After addition of 45.5 μls of TBA plates were heated for one hour in a 70 C oven. Plates were cooled at room temperature overnight and read on a plate reader the next day with excitation @ 530 nm and emission @ 565 nm.
IC50's of inhibitors were calculated with a 4-parameter fit using 11 inhibitor concentrations in duplicate with 3-fold serial dilutions. Controls on each plate included no inhibitor (zero % effect) and an inhibitor 10-fold in excess of its' IC50 (100% effect). The highest inhibitor concentration tested was typically 1 μM.

Sequence of human recombinant H-PGDS (O60760 whole entry): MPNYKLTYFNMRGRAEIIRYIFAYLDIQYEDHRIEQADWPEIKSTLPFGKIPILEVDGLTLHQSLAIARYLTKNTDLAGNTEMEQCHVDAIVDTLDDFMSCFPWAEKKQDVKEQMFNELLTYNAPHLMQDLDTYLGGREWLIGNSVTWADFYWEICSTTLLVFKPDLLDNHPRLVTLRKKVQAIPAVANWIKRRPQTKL

Structure (SMILES) | pIC50
O=C(NCc1cc(F)cc2c1OCOC2)c1ccc(-c2ccc(F)cc2)nc1 [Example 472, N-[(6-Fluoro-4H-1,3-benzodioxin-8-yl)methyl]-6-(4-fluorophenyl)nicotinamide] | 6.59
CNS(=O)(=O)c1ccc(CNC(=O)c2ccc(-c3ccccc3)nc2)cc1 [Example 397, N-{4-[(Methylamino)sulfonyl]benzyl}-6-phenylnicotinamide] | 7.73
COc1cccc(-c2ccc(C(=O)NCC3CCN(C(C)=O)CC3)cn2)c1 [Example 273, N-[(1-Acetylpiperidin-4-yl)methyl]-6-(3-methoxyphenyl)nicotinamide] | 6.25
O=C(NCCCN1CCCC1=O)c1ccc(-c2ccccc2)nc1 [Example 350, N-[3-(2-Oxopyrrolidin-1-yl)propyl]-6-phenylnicotinamide] | 8.17
CCC1CCN(CCNC(=O)c2ccc(-c3ccc(F)cc3)nc2)CC1 [Example 468, N-[2-(4-Ethylpiperidin-1-yl)ethyl]-6-(4-fluorophenyl)nicotinamide] | 6.16
O=C(NCc1ccc(Cl)cc1)c1ccc(-c2ccc(F)cc2)nc1 [Example 462, N-(4-Chlorobenzyl)-6-(4-fluorophenyl)nicotinamide] | ≤ 6.00
COc1ccc(CNC(=O)c2ccc(-c3ccc(F)cc3)nc2)cc1OC [Example 461, N-(3,4-Dimethoxybenzyl)-6-(4-fluorophenyl) nicotinamide] | 7.04
COc1ccc(C(N)CC(=O)NC(=O)c2ccc(-c3cccc(C)c3)nc2)cc1OC (stereo not shown) [Example 452, N-[3-Amino-3-(3,4-dimethoxyphenyl)propanoyl]-6-(3-methylphenyl) nicotinamide] | 7.63
CC(NC(=O)c1ccc(-c2ccc(F)cc2)nc1)c1ccccc1 (stereo not shown) [Example 265, 6-(4-Fluorophenyl)-N-(1-phenylethyl)nicotinamide] | 6.82
Cc1ccc(CN2CCC(NC(=O)c3ccc(-c4ccc(F)cc4)nc3)C2=O)cc1 (stereo not shown) [Example 259, 6-(4-Fluorophenyl)-N-[1-(4-methylbenzyl)-2-oxopyrrolidin-3-yl]nicotinamide] | 6.55
COc1cccc(-c2ccc(C(=O)NCc3nnc(-c4cccnc4)[nH]3)cn2)c1 [Example 510, 6-(3-Methoxyphenyl)-N-[(5-pyridin-3-yl-4H-1,2,4-triazol-3-yl)methyl]nicotinamide] | 6.24
CC(C)(C)OCCNC(=O)c1ccc(-c2cccc(F)c2)nc1 [Example 134, N-(2-tert-Butoxyethyl)-6-(3-fluorophenyl)nicotinamide] | 7.32
O=C(NCCc1ccncc1)c1ccc(-c2ccc(F)cc2)nc1 [Example 264, 6-(4-Fluorophenyl)-N-(2-pyridin-4-ylethyl)nicotinamide] | 6.62
COC(=O)[C@H](Cc1ccc(Cl)cc1)NC(=O)c1ccc(-c2cccc(F)c2)nc1 [Example 403, Methyl 4-chloro-N-{[6-(3-fluorophenyl)pyridin-3-yl]carbonyl}phenylalaninate] | 6.62
O=C(NC[C@H]1CC[C@H](c2nnc(C3CC3)[nH]2)CC1)c1ccc(-c2cccc(F)c2)nc1 [Example 9, N-{[trans-4-(5-Cyclopropyl-4H-1,2,4-triazol-3-yl)cyclohexyl]methyl}-6-(3-fluorophenyl)nicotinamide] | 7.08
O=C(N[C@@H]1C[C@H]2CC[C@@H](C1)N2C(=O)NCCO)c1ccc(-c2cccc(F)c2)nc1 [Example 597, (3-exo)-3-({[6-(3-Fluorophenyl)-pyridin-3-yl]carbonyl}amino)-N-(2-hydroxyethyl)-8-azabicyclo[3.2.1]octane-8-carboxamide] | 7.46
O=C(NCCCCNC(=O)c1ccc(-c2cccc(F)c2)nc1)OCc1ccccc1 [Example 214, Benzyl [4-({[6-(3-fluorophenyl)pyridin-3-yl]carbonyl}amino)butyl] carbamate] | 7.68
COc1ccc(C(Cc2cc(C)no2)NC(=O)c2ccc(-c3cccc(F)c3)nc2)cc1OC (stereo not shown) [Example 55, N-[1-(3,4-Dimethoxyphenyl)-2-(3-methylisoxazol-5-yl)ethyl]-6-(3-fluorophenyl)nicotinamide] | 7.95
CNS(=O)(=O)c1ccc(CNC(=O)c2ccc(-c3cccc(C)c3)nc2)cc1 [Example 218, N-{4-[(Methylamino)sulfonyl]benzyl}-6-(3-methylphenyl)nicotinamide] | 7.56
CCOC(=O)CC(NC(=O)c1ccc(-c2ccc(F)cc2)nc1)c1ccccc1 (stereo not shown) [Example 258, Ethyl 3-({[6-(4-fluorophenyl)pyridin-3-yl]carbonyl}amino)-3-phenylpropanoate] | 6.15
C[C@@H](NC(=O)c1ccc(-c2cccc(F)c2)nc1)[C@@H](O)c1ccccc1 [Example 81, 6-(3-Fluorophenyl)-N-[(1R,2S)-2-hydroxy-1-methyl-2-phenethyl]nicotinamide] | 7.39
CCOC(=O)CC(NC(=O)c1ccc(-c2ccccc2)nc1)c1ccccc1Cl (stereo not shown) [Example 384, ethyl 3-(2-Chlorophenyl)-3-{[(6-phenylpyridin-3-yl)carbonyl]amino}propanoate] | 7.40
COCCN1C(=O)CCC1CCNC(=O)c1ccc(-c2cccc(F)c2)nc1 (stereo not shown) [Example 46, 6-(3-Fluorophenyl)-N-{2-[1-(2-methoxyethyl)-5-oxopyrrolidin-2-yl]ethyl}nicotinamide] | 7.76

Other lines, results leading:

pIC50 | Structure (SMILES)
6.84 | Cc1cc(C(F)(F)F)nc(CNC(=O)c2ccc(-c3cccc(F)c3)nc2)n1 [Example 98, 6-(3-Fluorophenyl)-N-{[4-methyl-6-(trifluoromethyl)pyrimidin-2-yl]methyl}nicotinamide]
8.28 | O=C(NCCCc1ccccn1)c1ccc(-c2cccc(F)c2)nc1 [Example 118, 6-(3-Fluorophenyl)-N-(3-pyridin-2-ylpropyl)nicotinamide]
6.36 | CNS(=O)(=O)c1ccc(CNC(=O)c2ccc(-c3cc(F)cc(OC)c3)nc2)cc1 [Example 559, 6-(3-Fluoro-5-methoxyphenyl)-N-{4-[(methylamino)sulfonyl]benzyl}nicotinamide]
7.89 | O=C(NCCNc1ncccn1)c1ccc(-c2cccc(F)c2)nc1 [Example 64, 6-(3-Fluorophenyl)-N-[2-(pyrimidin-2-ylamino)ethyl]nicotinamide]
7.17 | CNS(=O)(=O)c1ccc(CNC(=O)c2ccc(-c3cccc(F)c3)nc2)cc1 [Example 424, 6-(3-Fluorophenyl)-N-{4-[(methylamino)sulfonyl]benzyl}nicotinamide]
7.70 | O=C(NCCCCO)c1ccc(-c2cccc(F)c2)nc1 [Example 149, 6-(3-Fluorophenyl)-N-(4-hydroxybutyl)nicotinamide]
7.66 | O=C(NCCNc1ccccc1)c1ccc(-c2cccc(F)c2)nc1 [Example 429, N-(2-Anilinoethyl)-6-(3-fluorophenyl)nicotinamide]
7.21 | CCC(C)C(CO)NC(=O)c1ccc(-c2cccc(F)c2)nc1 (stereo not shown) [Example 537, 6-(3-Fluorophenyl)-N-[1-(hydroxymethyl)-2-methylbutyl]nicotinamide]
6.98 | Cc1ccc(CNC(=O)c2ccc(-c3cccc(C)c3)nc2)cc1 [Example 251, N-(4-Methylbenzyl)-6-(3-methylphenyl)nicotinamide]
7.41 | CC(O)CNC(=O)c1ccc(-c2cccc(F)c2)nc1 (stereo not shown) [Example 198, 6-(3-Fluorophenyl)-N-(2-hydroxypropyl)nicotinamide]
6.89 | CN1CCC(O)(CNC(=O)c2ccc(-c3cccc(F)c3)nc2)CC1 [Example 121, 6-(3-Fluorophenyl)-N-[(4-hydroxy-1-methylpiperidin-4-yl)methyl]nicotinamide]
≤ 6.00 | O=C(NCc1ccc(C(F)(F)F)cc1)c1ccc(-c2ccc(F)cc2)nc1 [Example 267, 6-(4-Fluorophenyl)-N-[4-(trifluoromethyl)benzyl] nicotinamide]
8.20 | Cc1ncsc1CCNC(=O)c1ccc(-c2cccc(F)c2)nc1 [Example 132, 6-(3-Fluorophenyl)-N-[2-(4-methyl-1,3-thiazol-5-yl)ethyl]nicotinamide]
7.29 | O=C(NCCc1nc(CN2CCOCC2)no1)c1ccc(-c2cccc(F)c2)nc1 [Example 35, 6-(3-Fluorophenyl)-N-{2-[3-(morpholin-4-ylmethyl)-1,2,4-oxadiazol-5-yl]ethyl}nicotinamide]
6.63 | Cc1cccc(-c2ccc(C(=O)NCc3ccc(Cl)cc3)cn2)c1 [Example 451, N-(4-Chlorobenzyl)-6-(3-methylphenyl)nicotinamide]
7.40 | CCOC(=O)c1nnc(CNC(=O)c2ccc(-c3cccc(F)c3)nc2)o1 [Example 217, Ethyl 5-[({[6-(3-fluorophenyl)pyridin-3-yl]carbonyl}amino)methyl]-1,3,4-oxadiazole-2-carboxylate]
7.97 | COc1cccn(CCNC(=O)c2ccc(-c3cccc(F)c3)nc2)c1=O [Example 48, 6-(3-Fluorophenyl)-N-[2-(3-methoxy-2-oxopyridin-1(2H)-yl)ethyl]nicotinamide]
